{"source": "patent US6562609B1", "about": "“Cholesterol 25-hydroxylase” (Board of Regents, The University of Texas System, priority 1998, dated 2003)", "key": {"[1]": {"system": "cholesterol 25-hydroxylase", "test": "Inhibition of cholesterol 25-hydroxylase by sterols in transfected cells", "type": "cell-based", "settings": "for rank order of inhibition of cholesterol 25-hydroxylase: 3 μM [14C]cholesterol, cells treated with 2-hydroxypropyl-β-cyclodextrin; for decrease of enzyme activity: sterol 3 μM, equimolar with [14C]cholesterol (3 μM)", "protocol": "(§1) Media from the transfected cells were collected and extracted with 8 ml of chloroform:methanol (2:1, v/v). The organic phase from each sample was taken to dryness under a stream of nitrogen and residues were dissolved in 40 μl aliquots of chloroform:methanol (2:1, v/v) and applied to 20×20 cm prescored LK5DF silica gel TLC plates (Whatman, Hillsboro, Oreg.) with preadsorbent layers. The plates were developed in ethyl acetate:toluene (4:6, v/v), and exposed to a Fuji BAS-MP phosphoimager plate overnight. Phosphoimage analysis was then performed on a Fuji BAS 1000 apparatus.\nInhibitor Studies—Transfection of CHOP cells was carried out as described above with the following exceptions. Cells were plated on Day 0 at a density of 150,000 cells/well in 6-well plates containing Medium C. On Day 1, cells were transfected with 2.7 μg of the indicated cholesterol 25-hydroxylase expression plasmid and 0.3 μg of pVA-1, using 12 μl of pfx-8 as transfection lipid. After 4 h, the lipid-DNA mixture was removed and 1.5 ml of Medium D was added. In certain experiments, this medium was aspirated and replaced on Day 2 with 1 ml per well of a 20 mg/ml solution of 2-hydroxypropyl-β-cyclodextrin (Sigma) in DMEM/Ham's F12 (1:1) medium and returned to the incubator. The cyclodextrin containing medium was replaced after 1-1.5 h with 1.5 ml of Medium D, and substrate and inhibitors were then added, each in a volume of 4.5 μl of ethanol. The concentration of [4-^14C]cholesterol substrate (specific activity=26.8 mCi/mmol) was 3 μM. Inhibitors were added to final concentrations of 3, 10 or 30 μM. Cells and/or cells plus medium were harvested at the indicated times, extracted, and the conversion of substrate into [4-^14C]25-hydroxycholesterol product was determined by thin layer chromatography as described above. The inhibitors used were cholesterol(5-cholesten-3β-ol), cholestanol (5α-cholestan-3β-ol), epicholesterol (5-cholesten-3α-ol), coprostanol(5β-cholestan-3β-ol), desmosterol(5,24-cholestadien-3β-ol), β-sitosterol(5-cholesten-24β-ethyl-3β-ol ), 25-hydroxycholesterol(cholest-5-ene-3β,25-diol), and 27-nor-25-oxocholesterol(27-nor-25-oxo-5-cholesten-3β-ol). All steroids were purchased from Steraloids Inc. (Wilton, N.H.), except cholesterol, which was from Sigma (St. Louis, Mo.).\nWe next tested the ability of different sterols to inhibit cholesterol 25-hydroxylase. In these experiments, 293 cells were transfected with a 25-hydroxylase cDNA, treated with 2-hydroxypropyl-β-cyclodextrin to remove endogenous cholesterol, and then incubated with 3 μM [^14C]cholesterol and the indicated concentrations of unlabeled inhibitor sterol. The rank order of inhibition for the […] sterols tested was desmosterol>cholestanol>25-hydroxycholesterol>epicholesterol>sitosterol>>coprostanol=25-oxo-27-nor-cholesterol. […] In the case of desmosterol (5,24-cholestadien-3β-ol), which can not be 25-hydroxylated due to the Δ^24 bond, this sterol appears to act as a true inhibitor."}, "[2]": {"target": "T1, cholesterol 25-hydroxylase (Mus musculus, UniProt Q9Z0F5)", "T1 construct": "a full-length mouse 25-hydroxylase cDNA fragment from plasmid pCMV-m25; expressed in transfected cells; host or cells: CHOP cells (CHO derivative expressing polyoma middle T antigen)", "T1 sequence (Q9Z0F5 1-298)": "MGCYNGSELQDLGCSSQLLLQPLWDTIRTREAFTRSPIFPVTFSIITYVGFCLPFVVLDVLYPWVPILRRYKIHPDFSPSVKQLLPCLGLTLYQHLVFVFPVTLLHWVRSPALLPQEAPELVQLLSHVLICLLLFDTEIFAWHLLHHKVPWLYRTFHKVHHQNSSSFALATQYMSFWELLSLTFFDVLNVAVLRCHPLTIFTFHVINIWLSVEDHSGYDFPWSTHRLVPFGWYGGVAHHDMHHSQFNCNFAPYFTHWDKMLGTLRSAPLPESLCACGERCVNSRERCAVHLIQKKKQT", "test": "25-hydroxylase activity in CHOP cells transfected with the murine cDNA", "type": "cell-based", "settings": "treatment of transfected CHOP cells", "protocol": "(§2) Measurement of cholesterol 25-hydroxylase activity in whole cells—The transfection medium containing the cationic lipid was aspirated and replaced with 3 ml of Medium B (DMEM containing 10% newborn calf lipoprotein-poor serum, 100 u/ml penicillin, and 100 μg/ml streptomycin sulfate) supplemented with 5 μI of [4-^14C]cholesterol (56.6 mCi/mmol; 0.040 μCi/μl; New England Nuclear, Boston, Mass.). Cells were incubated for a further 60 h at 37° C. in an atmosphere of 8.8% CO2.\nas §1\nInhibitor Studies—Transfection of CHOP cells was carried out as described above with the following exceptions. […] Cells and/or cells plus medium were harvested at the indicated times, extracted, and the conversion of substrate into [4-^14C]25-hydroxycholesterol product was determined by thin layer chromatography as described above. […]"}, "human 25-hydroxylase": {"target": "T2, human 25-hydroxylase (Homo sapiens, UniProt O95992)", "T2 construct": "expressed in transfected cells; host or cells: human embryonic kidney 293 cells", "T2 sequence (O95992 1-272)": "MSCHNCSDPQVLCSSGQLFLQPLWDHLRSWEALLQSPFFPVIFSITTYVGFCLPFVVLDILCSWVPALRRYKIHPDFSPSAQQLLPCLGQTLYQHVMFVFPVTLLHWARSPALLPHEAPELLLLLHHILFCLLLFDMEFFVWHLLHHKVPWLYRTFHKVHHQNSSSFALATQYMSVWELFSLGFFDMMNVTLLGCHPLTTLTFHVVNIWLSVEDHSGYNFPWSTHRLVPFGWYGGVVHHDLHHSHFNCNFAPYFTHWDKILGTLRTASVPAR", "test": "25-hydroxylase activity in 293 cells transfected with the human cDNA", "type": "cell-based", "settings": "treatment of transfected 293 cells", "protocol": "as §2, §1\nThis EST was used to isolate a near full-length cDNA encoding the human 25-hydroxylase as described in Experimental Procedures. Transfection into 293 cells of the human cDNA cloned in a pCMV6 vector produced abundant 25-hydroxylase enzyme activity."}, "gene transcription": {"system": "gene transcription", "settings": "compared with 24- and 27-hydroxycholesterol, in vitro; cited from earlier work"}}}
{"compound": "CC(C)CCC[C@@H](C)[C@H]1CC[C@H]2[C@@H]3CC[C@@H]4C[C@@H](O)CC[C@]4(C)[C@H]3CC[C@]12C", "note": "[coprostanol, 5β-cholestan-3β-ol]", "values": [{"measurement": "rank order of inhibition of cholesterol 25-hydroxylase", "setting": "[1]", "value": "desmosterol>cholestanol>25-hydroxycholesterol>epicholesterol>sitosterol>>coprostanol=25-oxo-27-nor-cholesterol"}, {"measurement": "decrease of enzyme activity", "setting": "[1]", "value": "did not inhibit the enzyme"}]}
{"compound": "2-hydroxypropyl-β-cyclodextrin", "values": [{"measurement": "stimulation of 25-hydroxylase activity", "setting": "[2]", "value": "approximately 10 fold"}, {"measurement": "stimulation of 25-hydroxylase activity", "setting": "human 25-hydroxylase", "value": "approximately five-fold"}]}
{"compound": "CC[C@H](CC[C@@H](C)[C@H]1CC[C@H]2[C@@H]3CC=C4C[C@@H](O)CC[C@]4(C)[C@H]3CC[C@]12C)C(C)C", "note": "[sitosterol, 5-cholesten-24β-ethyl-3β-ol]", "values": [{"measurement": "rank order of inhibition of cholesterol 25-hydroxylase", "setting": "[1]", "value": "desmosterol>cholestanol>25-hydroxycholesterol>epicholesterol>sitosterol>>coprostanol=25-oxo-27-nor-cholesterol"}]}
{"compound": "CC(C)CCC[C@@H](C)[C@H]1CC[C@H]2[C@@H]3CC[C@H]4C[C@@H](O)CC[C@]4(C)[C@H]3CC[C@]12C", "note": "[cholestanol, 5α-cholestan-3β-ol]", "values": [{"measurement": "rank order of inhibition of cholesterol 25-hydroxylase", "setting": "[1]", "value": "desmosterol>cholestanol>25-hydroxycholesterol>epicholesterol>sitosterol>>coprostanol=25-oxo-27-nor-cholesterol"}]}
{"compound": "C[C@H](CCCC(C)(C)O)[C@H]1CC[C@H]2[C@@H]3CC=C4C[C@@H](O)CC[C@]4(C)[C@H]3CC[C@]12C", "note": "[25-hydroxycholesterol, cholest-5-ene-3β,25-diol]", "values": [{"measurement": "rank order of inhibition of cholesterol 25-hydroxylase", "setting": "[1]", "value": "desmosterol>cholestanol>25-hydroxycholesterol>epicholesterol>sitosterol>>coprostanol=25-oxo-27-nor-cholesterol"}, {"measurement": "potency as regulator of gene transcription among natural oxysterols", "setting": "gene transcription", "value": "most potent regulator of gene transcription"}]}
{"compound": "CC(C)=CCC[C@@H](C)[C@H]1CC[C@H]2[C@@H]3CC=C4C[C@@H](O)CC[C@]4(C)[C@H]3CC[C@]12C", "note": "[desmosterol, 5,24-cholestadien-3β-ol]", "values": [{"measurement": "rank order of inhibition of cholesterol 25-hydroxylase", "setting": "[1]", "value": "desmosterol>cholestanol>25-hydroxycholesterol>epicholesterol>sitosterol>>coprostanol=25-oxo-27-nor-cholesterol"}, {"measurement": "decrease of enzyme activity", "setting": "[1]", "value": 30, "unit": "%"}]}
{"compound": "CC(C)CCC[C@@H](C)[C@H]1CC[C@H]2[C@@H]3CC=C4C[C@H](O)CC[C@]4(C)[C@H]3CC[C@]12C", "note": "[epicholesterol, 5-cholesten-3α-ol]", "values": [{"measurement": "rank order of inhibition of cholesterol 25-hydroxylase", "setting": "[1]", "value": "desmosterol>cholestanol>25-hydroxycholesterol>epicholesterol>sitosterol>>coprostanol=25-oxo-27-nor-cholesterol"}]}
{"compound": "CC(=O)CCC[C@@H](C)[C@H]1CC[C@H]2[C@@H]3CC=C4C[C@@H](O)CC[C@]4(C)[C@H]3CC[C@]12C", "note": "[25-oxo-27-nor-cholesterol, 27-nor-25-oxo-5-cholesten-3β-ol]", "values": [{"measurement": "rank order of inhibition of cholesterol 25-hydroxylase", "setting": "[1]", "value": "desmosterol>cholestanol>25-hydroxycholesterol>epicholesterol>sitosterol>>coprostanol=25-oxo-27-nor-cholesterol"}]}
